For one test, the target named is Ephrin type-A receptor 2 (Homo sapiens, UniProt P29317). Kind of test: Inhibition of recombinant human N-terminal His6-tagged EphA2 (N598 to R890 residues) expressed in baculovirus using poly-EY as substrate after 180 mins by luciferase coupled chemiluminescence assay.
A further test concerns the target T1, Ephrin type-B receptor 4 (Homo sapiens, UniProt P54760).
T1 sequence (P54760 whole entry): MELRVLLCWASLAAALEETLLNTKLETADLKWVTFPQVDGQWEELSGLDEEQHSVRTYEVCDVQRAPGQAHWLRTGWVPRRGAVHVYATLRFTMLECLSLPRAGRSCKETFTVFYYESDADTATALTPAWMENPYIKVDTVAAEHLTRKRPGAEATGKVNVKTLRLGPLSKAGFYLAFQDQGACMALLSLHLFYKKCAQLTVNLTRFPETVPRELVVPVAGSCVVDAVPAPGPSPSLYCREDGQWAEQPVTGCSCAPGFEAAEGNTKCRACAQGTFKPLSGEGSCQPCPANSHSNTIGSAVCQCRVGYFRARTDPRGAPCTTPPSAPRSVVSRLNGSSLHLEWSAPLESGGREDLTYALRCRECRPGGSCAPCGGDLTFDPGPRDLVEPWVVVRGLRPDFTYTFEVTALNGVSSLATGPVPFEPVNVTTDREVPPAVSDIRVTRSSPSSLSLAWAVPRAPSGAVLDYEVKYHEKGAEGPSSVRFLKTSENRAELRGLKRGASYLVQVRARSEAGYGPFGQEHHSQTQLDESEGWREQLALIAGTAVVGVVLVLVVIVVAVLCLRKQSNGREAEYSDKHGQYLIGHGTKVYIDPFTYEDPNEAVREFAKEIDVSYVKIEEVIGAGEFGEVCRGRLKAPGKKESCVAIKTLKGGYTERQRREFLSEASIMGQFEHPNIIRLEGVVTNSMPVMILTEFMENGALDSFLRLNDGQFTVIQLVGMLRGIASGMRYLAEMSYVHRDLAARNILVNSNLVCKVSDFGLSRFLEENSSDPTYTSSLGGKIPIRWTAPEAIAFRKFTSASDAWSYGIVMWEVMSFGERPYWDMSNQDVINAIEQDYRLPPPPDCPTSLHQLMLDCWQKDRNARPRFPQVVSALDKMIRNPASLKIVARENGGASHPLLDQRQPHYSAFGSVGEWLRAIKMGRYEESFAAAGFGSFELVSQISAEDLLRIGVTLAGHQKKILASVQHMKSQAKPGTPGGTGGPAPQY
The test is described as follows: Inhibition of recombinant human N-terminal His6-tagged EphB4 kinase domain (E605 to E890 residues) expressed in baculovirus using poly-AEKY as substrate after 150 mins in presence of gamma33P-ATP by liquid scintillation spectrometry.

In test [1] the target is Receptor tyrosine-protein kinase erbB-2 (Homo sapiens, UniProt P04626). The test is described as follows: Inhibition of recombinant human N-terminal GST His6-tagged thrombin cleavage site-fused ErbB2 kinase domain (Q679 to V1255 residues) expressed in baculovirus infected insect Sf9 cells using biotinylated poly-EY as substrate after 60 mins by alphascreen assay. (In general: In Alpha technology, singlet oxygen from a donor bead excites a nearby acceptor bead.)

In test [2] the target is Vascular endothelial growth factor receptor 2 (Homo sapiens, UniProt P35968). Kind of test: Inhibition of recombinant human N-terminal GST-fused KDR (D807 to V1356 residues) expressed in baculovirus infected […] insect Sf9 cells using poly-EY as substrate after 240 mins by luciferase coupled chemiluminescence assay.
Test [3] deals with Vascular endothelial growth factor receptor 1 (Homo sapiens, UniProt P17948). The test is described as follows: Inhibition of recombinant human N-terminal GST-tagged factor 10a cleavage site-fused Flt1 (K784 to I1338 residues) expressed in baculovirus infected insect Sf9 cells using poly-EY as substrate after 120 mins in presence of gamma33P-ATP by liquid scintillation spectrometry.

pIC50: −log10 of the molar value. Where only a bound is given, the exact number is not on record here.

Chain of Vascular endothelial growth factor receptor 2 (P35968 whole entry, the tested form may be a part): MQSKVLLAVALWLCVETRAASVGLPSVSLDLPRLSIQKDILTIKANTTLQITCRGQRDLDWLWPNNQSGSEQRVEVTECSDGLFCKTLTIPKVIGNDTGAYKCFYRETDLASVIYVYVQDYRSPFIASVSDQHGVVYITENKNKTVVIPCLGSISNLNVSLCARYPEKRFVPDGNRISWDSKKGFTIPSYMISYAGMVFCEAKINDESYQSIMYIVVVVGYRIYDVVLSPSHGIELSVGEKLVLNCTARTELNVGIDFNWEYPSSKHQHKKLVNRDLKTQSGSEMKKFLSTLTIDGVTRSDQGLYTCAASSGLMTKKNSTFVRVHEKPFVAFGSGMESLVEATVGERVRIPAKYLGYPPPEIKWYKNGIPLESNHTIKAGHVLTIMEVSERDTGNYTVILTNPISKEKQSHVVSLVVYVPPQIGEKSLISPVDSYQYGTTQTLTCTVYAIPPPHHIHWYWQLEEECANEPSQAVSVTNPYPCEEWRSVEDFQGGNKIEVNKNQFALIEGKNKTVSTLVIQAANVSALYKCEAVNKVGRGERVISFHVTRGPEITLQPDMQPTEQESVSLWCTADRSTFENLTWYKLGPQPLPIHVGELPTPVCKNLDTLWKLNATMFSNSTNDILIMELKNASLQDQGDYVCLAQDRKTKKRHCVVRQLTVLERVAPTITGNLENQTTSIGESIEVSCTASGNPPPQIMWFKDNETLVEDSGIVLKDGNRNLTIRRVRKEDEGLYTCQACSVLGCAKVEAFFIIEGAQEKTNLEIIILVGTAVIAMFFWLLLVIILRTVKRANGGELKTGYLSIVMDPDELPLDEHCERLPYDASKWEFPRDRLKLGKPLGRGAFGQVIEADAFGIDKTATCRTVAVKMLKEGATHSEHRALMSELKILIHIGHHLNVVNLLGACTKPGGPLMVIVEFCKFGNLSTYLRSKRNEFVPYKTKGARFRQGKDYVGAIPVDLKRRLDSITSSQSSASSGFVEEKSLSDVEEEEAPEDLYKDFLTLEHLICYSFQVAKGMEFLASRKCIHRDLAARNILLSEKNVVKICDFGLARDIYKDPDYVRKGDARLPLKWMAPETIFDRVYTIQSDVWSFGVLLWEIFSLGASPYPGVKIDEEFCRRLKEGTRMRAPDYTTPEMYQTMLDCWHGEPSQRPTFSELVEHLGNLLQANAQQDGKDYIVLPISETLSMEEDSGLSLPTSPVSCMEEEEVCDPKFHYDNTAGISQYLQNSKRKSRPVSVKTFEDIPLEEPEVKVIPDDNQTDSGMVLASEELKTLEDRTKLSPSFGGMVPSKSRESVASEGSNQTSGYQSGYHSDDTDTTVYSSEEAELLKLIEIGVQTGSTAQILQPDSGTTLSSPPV
Chain of Vascular endothelial growth factor receptor 1 (P17948 whole entry, the tested form may be a part): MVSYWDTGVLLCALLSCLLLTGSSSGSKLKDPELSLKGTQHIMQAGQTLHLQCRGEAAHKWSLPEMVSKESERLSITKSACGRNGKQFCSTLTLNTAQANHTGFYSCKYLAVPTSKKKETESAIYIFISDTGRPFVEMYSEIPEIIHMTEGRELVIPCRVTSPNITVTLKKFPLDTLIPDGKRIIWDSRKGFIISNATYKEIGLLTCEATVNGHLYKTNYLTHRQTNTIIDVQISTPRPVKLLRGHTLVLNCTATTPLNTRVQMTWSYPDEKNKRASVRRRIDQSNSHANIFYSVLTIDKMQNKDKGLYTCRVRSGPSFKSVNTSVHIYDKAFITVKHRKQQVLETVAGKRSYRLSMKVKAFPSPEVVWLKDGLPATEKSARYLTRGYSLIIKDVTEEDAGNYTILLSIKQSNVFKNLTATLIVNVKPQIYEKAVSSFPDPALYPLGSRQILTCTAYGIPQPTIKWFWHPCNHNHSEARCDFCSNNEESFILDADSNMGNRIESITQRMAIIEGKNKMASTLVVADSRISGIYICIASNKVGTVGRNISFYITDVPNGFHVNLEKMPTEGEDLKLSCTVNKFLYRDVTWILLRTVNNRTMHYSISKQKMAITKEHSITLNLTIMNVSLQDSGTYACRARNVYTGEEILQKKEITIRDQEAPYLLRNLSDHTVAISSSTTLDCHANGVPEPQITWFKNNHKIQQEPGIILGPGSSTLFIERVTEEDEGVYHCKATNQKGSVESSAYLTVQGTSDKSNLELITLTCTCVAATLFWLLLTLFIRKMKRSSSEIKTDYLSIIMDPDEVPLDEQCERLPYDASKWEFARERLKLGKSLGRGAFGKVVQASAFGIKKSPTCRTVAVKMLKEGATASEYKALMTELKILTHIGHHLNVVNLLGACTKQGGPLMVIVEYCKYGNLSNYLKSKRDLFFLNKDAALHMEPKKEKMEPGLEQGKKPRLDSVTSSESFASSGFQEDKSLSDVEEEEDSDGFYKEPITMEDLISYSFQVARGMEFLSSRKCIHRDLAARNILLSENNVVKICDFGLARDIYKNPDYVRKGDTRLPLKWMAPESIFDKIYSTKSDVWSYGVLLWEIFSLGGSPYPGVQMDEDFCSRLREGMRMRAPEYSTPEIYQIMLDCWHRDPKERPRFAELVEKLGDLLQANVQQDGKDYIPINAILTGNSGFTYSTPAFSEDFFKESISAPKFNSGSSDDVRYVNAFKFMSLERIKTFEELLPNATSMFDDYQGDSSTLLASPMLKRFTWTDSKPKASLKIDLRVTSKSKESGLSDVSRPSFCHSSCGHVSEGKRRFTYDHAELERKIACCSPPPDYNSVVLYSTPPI
Chain of Receptor tyrosine-protein kinase erbB-2 (P04626 whole entry, the tested form may be a part): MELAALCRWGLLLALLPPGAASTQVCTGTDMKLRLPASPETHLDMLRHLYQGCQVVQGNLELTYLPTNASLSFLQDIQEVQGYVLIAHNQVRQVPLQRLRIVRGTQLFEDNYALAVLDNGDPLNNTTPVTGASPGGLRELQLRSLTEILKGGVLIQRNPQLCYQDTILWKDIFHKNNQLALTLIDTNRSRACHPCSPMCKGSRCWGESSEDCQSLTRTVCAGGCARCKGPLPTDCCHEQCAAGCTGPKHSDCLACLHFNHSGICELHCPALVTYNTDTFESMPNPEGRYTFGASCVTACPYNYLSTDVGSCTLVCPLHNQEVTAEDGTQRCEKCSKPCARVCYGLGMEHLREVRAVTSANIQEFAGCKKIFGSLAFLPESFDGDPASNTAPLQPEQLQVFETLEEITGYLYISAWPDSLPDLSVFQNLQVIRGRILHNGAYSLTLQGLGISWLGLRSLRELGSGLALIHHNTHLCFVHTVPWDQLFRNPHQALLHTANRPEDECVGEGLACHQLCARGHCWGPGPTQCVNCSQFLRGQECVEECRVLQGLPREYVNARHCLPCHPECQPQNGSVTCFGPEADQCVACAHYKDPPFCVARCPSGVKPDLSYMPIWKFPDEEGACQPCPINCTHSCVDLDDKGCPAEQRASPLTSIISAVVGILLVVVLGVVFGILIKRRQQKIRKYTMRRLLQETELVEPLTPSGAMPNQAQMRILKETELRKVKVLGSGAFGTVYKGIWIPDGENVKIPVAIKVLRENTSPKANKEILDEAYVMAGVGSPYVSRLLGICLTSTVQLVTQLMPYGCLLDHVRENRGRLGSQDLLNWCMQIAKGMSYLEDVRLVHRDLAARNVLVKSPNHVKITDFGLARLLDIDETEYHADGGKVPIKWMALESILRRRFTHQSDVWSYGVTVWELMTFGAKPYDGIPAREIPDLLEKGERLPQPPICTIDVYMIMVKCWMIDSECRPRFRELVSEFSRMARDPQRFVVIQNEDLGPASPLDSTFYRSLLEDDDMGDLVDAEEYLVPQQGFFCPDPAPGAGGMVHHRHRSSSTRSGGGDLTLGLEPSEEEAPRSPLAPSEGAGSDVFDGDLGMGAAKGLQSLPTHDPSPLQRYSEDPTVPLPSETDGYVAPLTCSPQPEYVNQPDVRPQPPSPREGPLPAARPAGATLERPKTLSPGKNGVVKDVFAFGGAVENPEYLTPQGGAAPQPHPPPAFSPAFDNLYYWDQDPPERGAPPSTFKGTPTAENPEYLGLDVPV
Chain of Ephrin type-A receptor 2 (P29317 whole entry, the tested form may be a part): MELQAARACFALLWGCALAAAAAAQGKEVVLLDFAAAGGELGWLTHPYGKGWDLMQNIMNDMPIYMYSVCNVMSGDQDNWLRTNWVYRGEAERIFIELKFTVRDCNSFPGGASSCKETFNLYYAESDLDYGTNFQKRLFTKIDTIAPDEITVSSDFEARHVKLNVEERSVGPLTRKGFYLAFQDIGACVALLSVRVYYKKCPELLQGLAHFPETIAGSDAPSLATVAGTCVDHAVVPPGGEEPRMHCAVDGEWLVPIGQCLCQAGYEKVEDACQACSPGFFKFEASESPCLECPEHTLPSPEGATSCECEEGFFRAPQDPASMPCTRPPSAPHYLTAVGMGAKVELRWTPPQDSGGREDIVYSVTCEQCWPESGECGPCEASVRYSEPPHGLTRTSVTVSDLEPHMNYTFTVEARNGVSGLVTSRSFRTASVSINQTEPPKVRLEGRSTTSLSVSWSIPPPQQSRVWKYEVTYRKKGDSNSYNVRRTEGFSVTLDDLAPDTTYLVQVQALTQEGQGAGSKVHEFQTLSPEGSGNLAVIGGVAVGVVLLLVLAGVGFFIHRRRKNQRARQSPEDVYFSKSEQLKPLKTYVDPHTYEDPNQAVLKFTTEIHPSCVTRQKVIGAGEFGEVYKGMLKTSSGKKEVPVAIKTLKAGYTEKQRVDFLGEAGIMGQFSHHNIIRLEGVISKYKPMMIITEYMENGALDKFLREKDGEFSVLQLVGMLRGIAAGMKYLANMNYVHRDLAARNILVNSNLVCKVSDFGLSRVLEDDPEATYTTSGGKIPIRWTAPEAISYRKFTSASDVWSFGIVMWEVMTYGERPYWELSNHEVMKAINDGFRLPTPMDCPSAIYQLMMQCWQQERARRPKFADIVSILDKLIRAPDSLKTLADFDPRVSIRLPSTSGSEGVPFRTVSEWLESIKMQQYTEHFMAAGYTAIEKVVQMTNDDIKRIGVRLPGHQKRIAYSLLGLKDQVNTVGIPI

Turning to `COc1cc2c(Nc3cc(Cl)c(Cl)cc3F)ncnc2cc1OC[C@@H]1CN2CCC[C@H]2CO1`, the pIC50 (usually −log10 of the IC50, conventionally taken in molar units) was above 7.30 at Ephrin type-A receptor 2; above 7.30 on Ephrin type-B receptor 4; 6.00 to 7.30 in test [1]; above 7.30 in test [2]; 6.00 to 7.30 in test [3].
`COc1cc2c(Nc3ccc(Br)c(Cl)c3Cl)ncnc2cc1OC[C@@H]1CN2CCOC[C@H]2CO1`: the pIC50 was 6.00 to 7.30 on Ephrin type-A receptor 2; above 7.30 at Ephrin type-B receptor 4; 4.70 to 6.00 in test [1]; 6.00 to 7.30 in test [2]; 6.00 to 7.30 in test [3].
For the compound `COc1cc2c(Nc3cc(Cl)c(Cl)cc3F)ncnc2cc1OC[C@@H]1CN2CCOC[C@H]2CO1`, the pIC50 on Ephrin type-A receptor 2 was 6.00 to 7.30; at Ephrin type-B receptor 4 it was above 7.30; in test [1], 6.00 to 7.30; in test [2] it was 6.00 to 7.30; in test [3] it was 6.00 to 7.30.
In the case of `COc1cc2c(Nc3ccc(Br)c(Cl)c3F)ncnc2cc1OC[C@H]1CN2CCOC[C@H]2CO1`, the negative-log IC50 (pIC50) is 6.00 to 7.30 at Ephrin type-A receptor 2; 6.00 to 7.30 at Ephrin type-B receptor 4; 6.00 to 7.30 in test [1]; above 7.30 in test [2]; 6.00 to 7.30 in test [3].
Consider `COc1cc2c(Nc3ccc(Cl)c(Cl)c3)ncnc2cc1OC[C@H]1CN2CCC[C@@H]2CO1`, for which the pIC50 is 6.00 to 7.30 at Ephrin type-A receptor 2; above 7.30 at Ephrin type-B receptor 4; 6.00 to 7.30 in test [1]; above 7.30 in test [2]; 6.00 to 7.30 in test [3].
`COc1cc2c(Nc3ccc(Cl)c(Cl)c3)ncnc2cc1OC1C[C@@H]2CN(C)C[C@@H]2C1` (stereo not given in full): the pIC50 is 6.00 to 7.30 at Ephrin type-A receptor 2; 6.00 to 7.30 on Ephrin type-B receptor 4; 6.00 to 7.30 in test [1]; 6.00 to 7.30 in test [2]; 4.70 to 6.00 in test [3].
As to `COc1cc2c(Nc3ccc(F)c(Cl)c3F)ncnc2cc1OC[C@@H]1CN2CCC[C@H]2CO1`, the pIC50 is above 7.30 on Ephrin type-A receptor 2; above 7.30 at Ephrin type-B receptor 4; 6.00 to 7.30 in test [1]; 6.00 to 7.30 in test [2]; 6.00 to 7.30 in test [3].
As for `COc1cc2c(Nc3cc(Cl)c(Br)cc3F)ncnc2cc1OC[C@@H]1CN2CCOC[C@H]2CO1`, the pIC50 on Ephrin type-A receptor 2 was 6.00 to 7.30; on Ephrin type-B receptor 4, above 7.30; in test [1], 6.00 to 7.30; in test [2], 6.00 to 7.30; in test [3], 6.00 to 7.30.
Turning to `COc1cc2c(Nc3ccc(Br)c(Cl)c3Cl)ncnc2cc1OC[C@@H]1CN2CCC[C@H]2CO1`, the pIC50 at Ephrin type-A receptor 2 is above 7.30; on Ephrin type-B receptor 4 it was above 7.30; in test [1], 6.00 to 7.30; in test [2], above 7.30; in test [3], 6.00 to 7.30.
In the case of `COc1cc2c(Nc3ccc(Br)c(Cl)c3F)ncnc2cc1OC[C@@H]1CN2CCOC[C@H]2CO1`, the negative logarithm of the IC50 (pIC50) (at Ephrin type-A receptor 2; on Ephrin type-B receptor 4; in test [1]; in test [2]; in test [3]) was above 7.30 throughout.
As to `COc1cc2c(Nc3ccc(Cl)c(Cl)c3)ncnc2cc1OC[C@@H]1CN2CCC[C@H]2CO1`, the negative-log IC50 (pIC50) is above 7.30 at Ephrin type-A receptor 2; above 7.30 at Ephrin type-B receptor 4; 6.00 to 7.30 in test [1]; above 7.30 in test [2]; 6.00 to 7.30 in test [3].
`COc1cc2c(Nc3ccc(Cl)c(Cl)c3)ncnc2cc1OC[C@H]1CN2CCC[C@H]2CO1`: the pIC50 was above 7.30 at Ephrin type-A receptor 2; above 7.30 on Ephrin type-B receptor 4; above 7.30 in test [1]; above 7.30 in test [2]; 6.00 to 7.30 in test [3].
Consider `COc1cc2c(Nc3ccc(Cl)c(Cl)c3)ncnc2cc1OCC1CN2CCOCC2CO1` (stereo not given), for which the pIC50 at Ephrin type-A receptor 2 was 6.00 to 7.30; at Ephrin type-B receptor 4 it was above 7.30; in test [1], above 7.30; in test [2] it was above 7.30; in test [3] it was 6.00 to 7.30.
On to `COc1cc2c(Nc3ccc(F)c(Cl)c3F)ncnc2cc1OC[C@@H]1CN2CCOC[C@H]2CO1`, for which the pIC50 at Ephrin type-A receptor 2 is 6.00 to 7.30; on Ephrin type-B receptor 4, above 7.30; in test [1] it was 6.00 to 7.30; in test [2], 6.00 to 7.30; in test [3], 6.00 to 7.30.
For the compound `COc1cc2c(Nc3ccc(Cl)c(Cl)c3F)ncnc2cc1OC[C@@H]1CN2CCC[C@H]2CO1`, the pIC50 was above 7.30 at Ephrin type-A receptor 2; above 7.30 at Ephrin type-B receptor 4; 6.00 to 7.30 in test [1]; above 7.30 in test [2]; 6.00 to 7.30 in test [3].
With `COc1cc2c(Nc3ccc(Br)c(Cl)c3F)ncnc2cc1OC[C@@H]1CN2CCC[C@H]2CO1`, the pIC50 at Ephrin type-A receptor 2 is above 7.30; at Ephrin type-B receptor 4, above 7.30; in test [1], 6.00 to 7.30; in test [2], above 7.30; in test [3] it was above 7.30.
In the case of `COc1cc2c(Nc3cc(Cl)c(Br)cc3F)ncnc2cc1OC[C@@H]1CN2CCC[C@H]2CO1`, the pIC50 was above 7.30 on Ephrin type-A receptor 2; above 7.30 on Ephrin type-B receptor 4; 6.00 to 7.30 in test [1]; above 7.30 in test [2]; 6.00 to 7.30 in test [3].
For `COc1cc2c(Nc3ccc(Cl)c(Cl)c3F)ncnc2cc1OC[C@H]1CN2CCOC[C@H]2CO1`, the pIC50 on Ephrin type-A receptor 2 was 6.00 to 7.30; on Ephrin type-B receptor 4, above 7.30; in test [1], 6.00 to 7.30; in test [2] it was above 7.30; in test [3], 6.00 to 7.30.
For `COc1cc2c(Nc3ccc(Cl)c(Cl)c3)ncnc2cc1OC[C@@H]1CN2CCC[C@@H]2CO1`, the pIC50 at Ephrin type-A receptor 2 was above 7.30; at Ephrin type-B receptor 4, above 7.30; in test [1], above 7.30; in test [2], above 7.30; in test [3] it was 6.00 to 7.30.
As for `COc1cc2c(Nc3ccc(Cl)c(Cl)c3F)ncnc2cc1OC[C@@H]1CN2CCC[C@H]2C(=O)N1C`, the pIC50 at Ephrin type-A receptor 2 was 6.00 to 7.30; at Ephrin type-B receptor 4, above 7.30; in test [1], 4.70 to 6.00; in test [2], 6.00 to 7.30; in test [3] it was 6.00 to 7.30.
As to `COc1cc2c(Nc3ccc(Br)c(Cl)c3F)ncnc2cc1OC[C@@H]1CN2CCC[C@H]2C(=O)N1`, the negative-log IC50 (pIC50) on Ephrin type-A receptor 2 was 6.00 to 7.30; on Ephrin type-B receptor 4 it was above 7.30; in test [1], 4.70 to 6.00; in test [2], above 7.30; in test [3] it was 6.00 to 7.30.
With `COc1cc2c(Nc3ccc(Cl)c(Cl)c3F)ncnc2cc1OC[C@@H]1C[C@@H]2CN(C)C[C@@H]2C1` [TESEVATINIB], the pIC50 at Ephrin type-A receptor 2 is above 7.30; on Ephrin type-B receptor 4 it was above 7.30; in test [1] it was above 7.30; in test [2] it was above 7.30; in test [3], 6.00 to 7.30.
